How the values were obtained:
[1] = target: T1, Peroxisome proliferator-activated receptor alpha (Homo sapiens, UniProt Q07869)
T1 sequence (Q07869 whole entry): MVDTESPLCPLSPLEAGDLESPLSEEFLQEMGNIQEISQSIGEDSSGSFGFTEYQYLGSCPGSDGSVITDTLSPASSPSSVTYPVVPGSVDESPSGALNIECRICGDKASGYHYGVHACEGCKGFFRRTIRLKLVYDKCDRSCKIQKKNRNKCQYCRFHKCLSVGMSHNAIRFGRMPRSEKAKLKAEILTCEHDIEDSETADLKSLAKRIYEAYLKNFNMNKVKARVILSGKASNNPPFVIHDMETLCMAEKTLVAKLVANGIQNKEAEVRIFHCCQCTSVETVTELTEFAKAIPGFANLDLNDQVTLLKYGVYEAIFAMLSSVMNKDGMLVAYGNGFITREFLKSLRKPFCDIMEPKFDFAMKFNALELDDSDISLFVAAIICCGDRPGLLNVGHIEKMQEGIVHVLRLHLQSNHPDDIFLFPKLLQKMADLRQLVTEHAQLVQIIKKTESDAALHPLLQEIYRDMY
Description: In vitro activation of human peroxisome proliferator activated receptor alpha

[2] = target: T2, Peroxisome proliferator-activated receptor delta (Homo sapiens, UniProt Q03181); assay: In vitro activation of human peroxisome proliferator activated receptor delta (PPAR delta)
T2 sequence (Q03181 whole entry): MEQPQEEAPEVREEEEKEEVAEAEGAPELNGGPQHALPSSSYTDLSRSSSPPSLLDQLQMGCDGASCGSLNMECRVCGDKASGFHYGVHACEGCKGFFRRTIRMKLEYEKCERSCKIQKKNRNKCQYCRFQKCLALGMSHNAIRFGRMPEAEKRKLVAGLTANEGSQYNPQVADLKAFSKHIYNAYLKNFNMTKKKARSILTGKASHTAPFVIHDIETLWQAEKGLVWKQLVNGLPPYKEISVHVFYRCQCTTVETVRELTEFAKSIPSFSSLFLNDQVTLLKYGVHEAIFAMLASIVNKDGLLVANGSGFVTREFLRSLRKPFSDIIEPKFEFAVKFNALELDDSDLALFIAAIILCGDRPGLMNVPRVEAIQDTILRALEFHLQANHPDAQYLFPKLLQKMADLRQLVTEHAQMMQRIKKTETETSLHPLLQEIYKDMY

[3] = target: T3, Peroxisome proliferator-activated receptor gamma (Homo sapiens, UniProt P37231); assay: In vitro activation of human peroxisome proliferator activated receptor gamma (PPAR gamma)
T3 sequence (P37231 whole entry): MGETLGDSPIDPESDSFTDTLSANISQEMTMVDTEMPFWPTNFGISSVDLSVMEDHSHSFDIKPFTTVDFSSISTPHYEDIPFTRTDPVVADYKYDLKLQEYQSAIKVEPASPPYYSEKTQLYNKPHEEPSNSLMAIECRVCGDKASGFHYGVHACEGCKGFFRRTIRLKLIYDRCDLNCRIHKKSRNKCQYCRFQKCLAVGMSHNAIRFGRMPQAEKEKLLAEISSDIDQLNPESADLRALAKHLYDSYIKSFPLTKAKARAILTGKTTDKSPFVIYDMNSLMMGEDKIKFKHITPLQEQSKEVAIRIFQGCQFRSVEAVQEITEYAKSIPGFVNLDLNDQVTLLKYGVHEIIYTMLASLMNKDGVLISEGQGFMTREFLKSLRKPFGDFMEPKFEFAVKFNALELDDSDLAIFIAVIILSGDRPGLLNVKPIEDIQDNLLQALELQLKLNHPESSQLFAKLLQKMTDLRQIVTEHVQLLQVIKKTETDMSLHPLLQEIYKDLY

Which results are given for CCO[C@@H](Cc1ccc(OCC=C(c2ccc(-c3ccco3)cc2)c2ccc(-c3ccco3)cc2)cc1)C(=O)O?
EC50 [1]: 2 µM; EC50 [2]: 1 µM; EC50 [3]: 2.9 µM

For CCO[C@@H](Cc1ccc(OC/C=C(\c2ccccc2)c2ccc(-c3ccco3)cc2)cc1)C(=O)O, which EC50 [1] is on record?
Its EC50 is 0.3 µM.

And the EC50 [2]?
Its EC50 is 0.6 µM.

What about the EC50 [3] of the same compound?
The EC50 was 0.8 µM.

What does the source list for CCO[C@@H](Cc1ccc(OCC=C(c2ccc(-c3ccccc3)cc2)c2ccc(-c3ccccc3)cc2)cc1)C(=O)O?
EC50 [1]: 1.1 µM; EC50 [2]: 0.5 µM; EC50 [3]: 0.3 µM

How did the EC50 [1] turn out when CCO[C@@H](Cc1ccc(OCC=C(c2ccccc2)c2ccccc2)cc1)C(=O)O was run?
The EC50 was 6.4 µM.

And the EC50 [2]?
The EC50 was 5.7 µM.

And the EC50 [3]?
The EC50 was 2.7 µM.

How did the EC50 [1] turn out when CCO[C@@H](Cc1ccc(OC/C=C(/c2ccccc2)c2ccc(-c3ccco3)cc2)cc1)C(=O)O was run?
The EC50 was 0.4 µM.

And the EC50 [2]?
The EC50 was 2 µM.

What about the EC50 [3] of the same compound?
Its EC50 is 2 µM.

CCO[C@@H](Cc1ccc(OC/C=C(/c2ccccc2)c2ccc(Br)cc2)cc1)C(=O)O was tested. Which EC50 [1] did it give?
The EC50 was 2.2 µM.

What about the EC50 [2] of the same compound?
Its EC50 is 3.4 µM.

What about the EC50 [3] of the same compound?
Its EC50 is 4.3 µM.

CCO[C@@H](Cc1ccc(OC/C=C(\c2ccccc2)c2ccc(Br)cc2)cc1)C(=O)O was tested. Which EC50 [1] did it give?
The EC50 was 1.1 µM.

What about the EC50 [2] of the same compound?
Its EC50 is 0.9 µM.

What about the EC50 [3] of the same compound?
Its EC50 is 1.5 µM.

For CCO[C@@H](Cc1ccc(OC/C=C(/c2ccccc2)c2ccc(-c3ccccc3)cc2)cc1)C(=O)O, which EC50 [1] is on record?
Its EC50 is 0.7 µM.

And the EC50 [2]?
The EC50 was 2.2 µM.

What about the EC50 [3] of the same compound?
The EC50 was 1.7 µM.

What does the source list for CCO[C@@H](Cc1ccc(OCC=C(c2ccc(Br)cc2)c2ccc(Br)cc2)cc1)C(=O)O?
EC50 [1]: 0.3 µM; EC50 [2]: 0.4 µM; EC50 [3]: 0.9 µM

With CCO[C@@H](Cc1ccc(OCCN(c2ccccc2)c2ccccc2)cc1)C(=O)O as the compound, how does the EC50 [1] read?
The EC50 was 4.5 µM.

And the EC50 [3]?
The EC50 was 3.3 µM.

With CCO[C@@H](Cc1ccc(OC/C=C(/c2ccccc2)c2ccc(F)cc2)cc1)C(=O)O as the compound, how does the EC50 [1] read?
Its EC50 is 3.2 µM.

What about the EC50 [2] of the same compound?
Its EC50 is 3.4 µM.

And the EC50 [3]?
Its EC50 is 4 µM.

For CCO[C@@H](Cc1ccc(OCC=C(c2ccc(C)cc2)c2ccc(C)cc2)cc1)C(=O)O, which EC50 [1] is on record?
The EC50 was 0.7 µM.

What about the EC50 [2] of the same compound?
Its EC50 is 2 µM.

And the EC50 [3]?
The EC50 was 3.1 µM.

CCO[C@@H](Cc1ccc(OCC=C(c2ccc(OC)cc2)c2ccc(OC)cc2)cc1)C(=O)O was tested. Which EC50 [1] did it give?
The EC50 was 2.2 µM.

What about the EC50 [2] of the same compound?
Its EC50 is 0.7 µM.

And the EC50 [3]?
Its EC50 is 2.2 µM.

Which results are given for CCO[C@@H](Cc1ccc(OC/C=C(\c2ccccc2)c2ccc(-c3ccccc3)cc2)cc1)C(=O)O?
EC50 [1]: 0.9 µM; EC50 [2]: 2.2 µM; EC50 [3]: 0.6 µM

CCO[C@@H](Cc1ccc(OC/C=C(\c2ccccc2)c2ccc(F)cc2)cc1)C(=O)O was tested. Which EC50 [1] did it give?
Its EC50 is 5.3 µM.

What about the EC50 [2] of the same compound?
Its EC50 is 8.3 µM.

What about the EC50 [3] of the same compound?
The EC50 was 8.5 µM.
